Key:
[1] = In vivo pharmacokinetics study, oral and intravenous dosing; settings: rat, 1 mg/kg; for half-life / bioavailability: male, Sprague-Dawley, plasma; for bioavailability: oral
Protocol: Absorption and metabolic stability were studied using an in vivo pharmacokinetics assay. Drug levels were assessed using ultra-performance LC/TOF-MS.
Three male Sprague-Dawley rats, 200-300 g, were dosed per route. Test compound was administered either orally or intravenously (dose level of 1 mg/kg body weight). Test compound was formulated in 50:50 tetraethylene glycol:PBS for both routes. Animals were given free access to food throughout the study. On the day prior to dosing, the carotid artery was cannulated for sample collection and for the intravenous study the jugular vein was cannulated to enable dosing.
Blood samples were taken from the carotid artery at the following time points and placed in heparinised tubes: • Oral dosing—predose, 0.25, 0.5, 1, 2, 4, 8 and 24 hours post dose. • IV dosing—predose, 0.08, 0.25, 0.5, 1, 2, 4 and 8 hours post dose.
Blood samples were centrifuged to obtain plasma, which was transferred to a separate container and frozen at −20° C.
The supernatants were collected for analysis. The standard samples were prepared similarly, after spiking blank rat plasma samples to study compound concentrations at 1, 2, 5, 10, 20, 50, 100, 200, 500 and 1000 ng/mL. In addition, extra samples were prepared from 0-1 hour i.v. samples by diluting 1/20 with 50% aqueous acetonitrile to avoid exceeding the linear range of the analytical method.
A Waters Acquity liquid ultra-performance chromatographic system (Waters Corp., Milford, Mass., USA) with autosampler, vacuum degasser and column oven was used. The analytical column used for all compounds was a Waters BEH C18, (2.1×50 mm, 1.7 μm, Waters Corp, Milford, Mass., USA) together with a 0.2 μm on-line filter before the column. The eluents were 0.1% acetic acid (A, pH 3.2) and methanol (B). Gradient elution from 5% to 60% B in two minutes was employed, followed by one minute gradient to 90% B and column equilibration. The flow rate was 0.5 mL/min and the column oven temperature was 35° C. The flow was directed to the MS via Water Acquity photo-diode-array (PDA) detector. LC/TOF-MS data were recorded with a Micromass LCT Premier XE time-of-flight (TOF) mass spectrometer (Micromass Ltd., Manchester, England) equipped with a LockSpray electrospray ionization source. A positive ionization mode of electrospray was used for all compounds. The mass range of m/z 100-900 was acquired. The W-option of the reflector was used, and the DRE (dynamic range enhancement) option was set to on. The mass spectrometer and HPLC system were operated under Micromass MassLynx 4.1 software. […] Masslynx 4.1 software was used for controlling the instrumentation and for data processing.
The pharmacokinetic parameters for the test compounds were calculated by WinNonlin Pro (Pharsight Corp, CA) using standard noncompartmental methods. The elimination phase half-life (t1/2) was calculated by least-squares regression analysis of the terminal linear part of the log concentration—time curve. The area under the plasma concentration—time curve (AUC) was determined by use of the linear trapezoidal rule up to the last measurable concentration and thereafter by extrapolation of the terminal elimination phase to infinity.

[2] = Human liver microsomal stability assay; type: in vitro ADME; settings: both sexes, pH 7.4; pooled human liver microsomes 0.5 mg/mL, 3 μM compound, NADPH, 45 minute incubation
Protocol: Initial screening of candidate compounds was performed using in vitro assays to determine potency, metabolic stability and solubility in biologically relevant fluids. Potency was assessed using a viability assay based on the survival of the J774 macrophage cell line. […] Like osteoclasts, J774 macrophages are dependent on continued NFκB activation for survival, thereby providing a valuable screen for compounds with anti-inflammatory activity. Metabolic stability was measured by determining the rate of disappearance of compound in the presence of human liver microsomal preparations, as quantified by LC-MS/MS. Solubility was measured by equilibration of the compound in fasted state simulated intestinal fluid (FaSSIF) and quantified by HPLC.
Metabolic stability of APSAC derivatives was measured by determination of the rate of compound disappearance when incubated in the presence of human liver microsomes. Liver microsomes are prepared from the endoplasmic reticulum of hepatocytes and are the primary source of the most important enzymes (cytochrome P450) involved in drug metabolism. Study of drug stability in the presence of liver microsomes is accepted as a valuable model permitting rapid prediction of in vivo drug stability.
Human liver microsomes were obtained from a commercial source. Test compounds (3 μM) were incubated with pooled liver microsomes (male and female). Samples were incubated for a 45 minute period and removed at 5 time points and test compounds were analysed by LC-MS/MS.
The final incubation volume was 25 μL. A control incubation was included for each compound tested, where 0.1 M phosphate buffer pH 7.4 was added instead of NADPH. The control compounds testosterone and 7-hydroxycoumarin were included in each experiment and all incubations were performed singularly for each compound.
Each compound was incubated for 0, 5, 15, 30, and 45 minutes. The control (minus NADPH) was incubated for 45 minutes only. […] The incubation plates were centrifuged at 2500 rpm for 20 minutes at 4° C. to precipitate the protein.
Following protein precipitation, the sample supernatants were combined in cassettes of up to 4 compounds and analysed using standard LC-MS/MS conditions.
From a plot of the natural logarithm of the peak area ratio (i.e., the ratio of compound peak area:internal standard peak area) against time, the gradient of the line was determined. Subsequently, half-life and intrinsic clearance were calculated using the equations below: Eliminated rate constant (k)=(−gradient). […] Pharmacokinetics Studies

Compound | half-life ([1]; iv) | bioavailability [1] | half-life ([1]; po) | AUC ([1]; i.v.) | AUC ([1]; p.o.) | half-life at 3 µM [2]
O=S(=O)(N[C@H]1CC[C@@H](CO)CC1)c1ccc(-c2ccc(F)cc2F)cc1 [ABD781, 2′,4′-Difluoro-N-(cis-4-(hydroxymethyl)cyclohexyl)biphenyl-4-sulfonamide] | 52.2 min | 43% | 197 min | 22400 ng/mL/min | 9600 ng/mL/min | 41 min
O=S(=O)(N[C@H]1CC[C@@H](CO)C1)c1ccc(-c2ccc(F)cc2F)cc1 [ABD773, 2′,4′-Difluoro-N-((1 S,3R)-3-(hydroxymethyl)cyclopentyl)biphenyl-4-sulfonamide] | 48.6 min | 13% | 190 min | 11900 ng/mL/min | 1500 ng/mL/min | 54 min
